Measured values reported in ChEMBL document CHEMBL1201862, “PubChem BioAssay data set” (2004).
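Cultured in 96-well plates, cells were exposed to test compound for 48 hours across five concentrations. At the GI50, growth is halved.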 The source made the active and inactive calls. Rule as the data show it: active = GI50 up to about 1.1 µM and inactive = higher.

What was measured:
Experiment in all cases: growth of human tumour cells (NCI), 48 h
A549 = tested on: A549
ACHN = tested on: ACHN
CAKI-1 = tested on: CAKI-1
CCRF-CEM = tested on: CCRF-CEM
HCT-15 = tested on: HCT-15
K562 = tested on: K562
KM12 = tested on: KM12
OVCAR-5 = tested on: OVCAR-5
SF-539 = tested on: SF-539
SN12C = tested on: SN12C
SNB-19 = tested on: SNB-19
SNB-75 = tested on: SNB-75
TK-10 = tested on: TK-10
UO-31 = tested on: UO-31
XF498 = tested on: XF498
DU-145 = tested on: DU-145
Hs-578T = tested on: Hs-578T
LOX IMVI = tested on: LOX IMVI
PC-3 = tested on: PC-3
SR = tested on: SR

| SMILES | GI50 (A549) | GI50 (ACHN) | GI50 (CAKI-1) | GI50 (CCRF-CEM) | GI50 (HCT-15) [µM] | GI50 (K562) | GI50 (KM12) | GI50 (OVCAR-5) | GI50 (SF-539) | GI50 (SN12C) | GI50 (SNB-19) | GI50 (SNB-75) | GI50 (TK-10) | GI50 (UO-31) | GI50 (XF498) | GI50 (DU-145) | GI50 (Hs-578T) | GI50 (LOX IMVI) | GI50 (PC-3) | GI50 (SR) |
| --- | --- | --- | --- | --- | --- | --- | --- | --- | --- | --- | --- | --- | --- | --- | --- | --- | --- | --- | --- | --- |
| CC1(C)CCC[C@@]2(C)C1C[C@H](O)[C@@]1(C)O[C@@](C)([C@H](O)CO)CCC21 (some centres not stated) | 36.2 µM (inactive) | 26 µM (inactive) | 35.8 µM (inactive) | 29.7 µM (inactive) | 45.5 | 26.9 µM (inactive) | 37.2 µM (inactive) | 39.8 µM (inactive) | 37.2 µM (inactive) | 37.2 µM (inactive) | 49.8 µM (inactive) | 20.1 µM (inactive) | 22.9 µM (inactive) | 26.1 µM (inactive) | 38.7 µM (inactive) |  |  |  |  |  |
| [O-][N+]1=[N+]([O-])[C@@H](c2ccccc2)[C@H]1c1ccccc1 | 19.5 µM (inactive) | 17.6 µM (inactive) | 5.83 µM (inactive) | 3.3 µM (inactive) | 11.4 | 3.52 µM (inactive) | 22.4 µM (inactive) | 19.9 µM (inactive) | 18.4 µM (inactive) | 18 µM (inactive) | 18.4 µM (inactive) | 21.3 µM (inactive) | 17 µM (inactive) | 14.8 µM (inactive) |  | 16.3 µM (inactive) | > 100 µM (inactive) | 15.3 µM (inactive) | 17.5 µM (inactive) | 18.4 µM (inactive) |
| O=C(CCc1ccc(O)c(O)c1)NCCc1cc(OCc2ccccc2)cc(OCc2ccccc2)c1 | 16.7 µM (inactive) | 5.47 µM (inactive) | 4.45 µM (inactive) | 1.77 µM (inactive) | 3.03 | 5.92 µM (inactive) | 8.99 µM (inactive) | 13.1 µM (inactive) | 11.7 µM (inactive) | 10.4 µM (inactive) | 3.71 µM (inactive) | 4.98 µM (inactive) | 16.3 µM (inactive) | 2.13 µM (inactive) |  | 14.1 µM (inactive) | 9.29 µM (inactive) | 10.4 µM (inactive) | 8.09 µM (inactive) | 2.88 µM (inactive) |
| O=S(=O)(c1cccc(C(F)(F)F)c1)N1c2ccccc2-n2cccc2C1c1cccnc1 (configuration not stated) | 17.3 µM (inactive) | > 46.5 µM (inactive) | > 100 µM (inactive) | 8.75 µM (inactive) | 22 | 9.12 µM (inactive) | 19.2 µM (inactive) | > 50.5 µM (inactive) | 28 µM (inactive) | > 42.4 µM (inactive) | 32.6 µM (inactive) | 61.9 µM (inactive) | > 53.8 µM (inactive) | 17.7 µM (inactive) |  | > 39.7 µM (inactive) | > 47 µM (inactive) | 35.5 µM (inactive) | 10.7 µM (inactive) | 6.71 µM (inactive) |
